Here are results for nine molecules from patent US5801201A, “1-phenyl-2-dimenthylaminomethyl-cyclohexan-1-ol compounds as pharmaceutical active ingredients” (priority 1995, dated 1998).

Structures can show the parent of a compound that is named as a salt.

By ED50 is commonly meant the midpoint of the dose-response relation. The low end stands for an effect at a small dose, the high end for a need for a large dose.

This test concerns mice. As to the kind of experiment: Analgesia, thermal radiation (tail flick) test on mice, intravenous. The class given is in vivo, mice (male NMRI). The following applies: Mus musculus, 20 min, determined at effective maximum 20 minutes after administration, effect = latency ≥150% of pre-test average. The text has this: Testing for analgesia using the tail flick test on mice
The analgesic effectiveness of the compounds according to the invention was investigated in the thermal radiation (tail flick) test on mice using the method of D'Amour and Smith (J. Pharm. Exp. Ther. 72, 74-79 (1941). Male NMRI mice with a weight between 20 and 24 g were used for this purpose. The animals were placed individually in special test cages and the bases of their tails were exposed to the focused thermal radiation from an electric lamp (Rhema Analgesiemeter Type 3010). The lamp intensity was adjusted so that the time from switching on the lamp until the sudden twitching away of the tail (latency of pain) was 3-5 seconds for untreated animals. Before the administration of a compound according to the invention, the animals were pre-tested twice within five minutes and the average value of these measurements was calculated as the pre-test average. The pain measurement was made 20, 40 and 60 minutes after intravenous administration. When the latency of pain increased, the maximum time of exposure was restricted to 12 seconds and an increase in the latent period to ≥150% of the pre-test average value was assessed as an analgesic effect. In order to determine the dosage-dependency, the respective compound according to the invention was applied in doses increasing logarithmically by a factor of 3-5, which included the threshold and the maximum effective dose each time. The ED50 values were determined from the number of analgesic animals by the method of Litchfield and Wilcoxon (J. Pharm. Exp. Ther. 96, […], (1949)). Determination of the ED50 was made at the effective maximum 20 minutes after intravenous administration of the substance.
Consider `COc1cccc([C@@]2(O)CC[C@H](OCc3ccc(Cl)cc3)C[C@@H]2CN(C)C)c1.Cl` [(93), (+)-(1R, 2R, 4S)-4-(4-chloro-benzyloxy)-2-dimethylaminomethyl-1-(3-methoxyphenyl)-cyclohexanol hydrochloride], for which the 50% effect level (ED50) was put at a dose of 0.37 mg/kg. To `CN(C)C[C@H]1C[C@@H](OCC2CCCC2)CC[C@]1(O)c1cccc(OC2CCCC2)c1.Cl` (racemic) [(60), (1RS,2RS,4SR)-4-cyclopentylmethoxy-1-(3-cyclopentyl-oxy-phenyl)-2-dimethylaminomethyl-cyclohexanol hydrochloride] belongs 2.46 mg/kg; to `CN(C)C[C@H]1C[C@@H](OCc2ccccc2)CC[C@]1(O)c1cccc(O)c1.Cl` [(85), (+)-(1R, 2R, 4S)-3-(4-benzyloxy-2-dimethylaminomethyl-1-hydroxycyclohexyl)-phenol hydrochloride], 0.068 mg/kg; to `COc1cccc([C@@]2(O)CC[C@H](OCc3ccccc3)C[C@@H]2CN(C)C)c1.Cl` [[(+)1], (1R,2R,4S)-4-benzyloxy-2-dimethylaminomethyl-1-(3-methoxy-phenyl)-cyclohexanol hydrochloride], 0.049 mg/kg. To `COc1cccc([C@@]2(O)CC[C@H](Cc3ccccc3)C[C@@H]2CN(C)C)c1.Cl` (racemic) [(35), (1RS,2RS,4SR)-4-benzyl-2-dimethylaminomethyl-1-(3-methoxy-phenyl)-cyclohexanol hydrochloride] belongs 2.43 mg/kg.

`CSc1cccc([C@@]2(O)CC[C@H](OCc3ccccc3)C[C@@H]2CN(C)C)c1` [[(+)6], (1R,2R,4S)-4-benzyloxy-2-[(dimethylamino)methyl]-1-(3-methyl-sulphanyl-phenyl)-cyclohexanol hydrochloride] had an ED50 of 0.19 mg/kg. `CN(C)C[C@H]1C[C@@H](CCC2CCCC2)CC[C@]1(O)c1cccc(OC2CCCC2)c1` [(71), hydrochloride] registered an ED50 of 3.35 mg/kg. This ED50 is about 18-fold higher than that of the molecule before. The molecule `COc1cccc([C@]2(O)CC[C@@H](OCc3ccccc3)C[C@H]2CN(C)C)c1.Cl` [[(-)1], (1S,2S,4R)-4-benzyloxy-2-dimethylaminomethyl-1-(3-methoxy-phenyl)-cyclohexanol hydrochloride] gave an ED50 of 0.822 mg/kg. To `C=C(C)CO[C@H]1CC[C@](O)(c2cccc(OC)c2)[C@@H](CN(C)C)C1` (relative stereo) [(14), (1RS,2RS,4SR)-2-dimethylaminomethyl-1-(3-methoxy-phenyl)-4-(2-methyl-2-allyloxy)-cyclohexanol hydrochloride] belongs 0.379 mg/kg.
